Reference: ChEMBL document CHEMBL5052856, “Inhibitors of apol1 and methods of using same” (2021)

Each molecule was assayed against Apolipoprotein L1 (Homo sapiens, UniProt O14791) (assay: Inhibition of APOL1 G1 variant in human HEK293-T-REx cells measured by Thallium assay).
Type: cell-based

Compound | IC50
O=C(NCC1(O)COC1)NC[C@H]1C[C@H](c2c(-c3ccc(F)cc3)[nH]c3c(F)cc(F)cc32)C1 | > 1000 nM
O=C(NC[C@H]1CC[C@@H](CO)O1)NC[C@H]1C[C@H](c2c(-c3ccc(F)cc3)[nH]c3c(F)cc(F)cc32)C1 | > 1000 nM
O=C(NC[C@H]1C[C@H](c2c(-c3ccc(F)cc3)[nH]c3c(F)cc(F)cc32)C1)NC(CO)C(F)(F)F (stereo partly specified) | > 1000 nM
CCC(O)CNC(=O)O[C@H]1C[C@H](c2c(-c3ccc(F)cc3)[nH]c3c(F)cc(F)cc32)C1 (stereo partly specified) | > 1000 nM
C[C@@H](O)CNC(=O)N(C)CC1CC(c2c(-c3ccc(F)cc3)[nH]c3c(F)cc(F)cc23)C1 (stereo partly specified) | > 1000 nM
Cn1cc(CNC(=O)O[C@H]2C[C@H](c3c(-c4ccc(F)cc4)[nH]c4c(F)cc(F)cc43)C2)nn1 | > 1000 nM
CN(CC1CC(c2c(-c3ccc(F)cc3)[nH]c3c(F)cc(F)cc23)C1)C(=O)NCc1cn(C)cn1 (stereo unspecified) | > 1000 nM
C[C@H](CO)N(C)C(=O)NC[C@H]1C[C@H](c2c(-c3ccc(F)cc3)[nH]c3c(F)cc(F)cc32)C1 | > 1000 nM
CC(CO)N(C)C(=O)NC[C@H]1C[C@H](c2c(-c3ccc(F)cc3)[nH]c3c(F)cc(F)cc32)C1 (stereo partly specified) | > 1000 nM
CN(C(=O)NC[C@H]1C[C@H](c2c(-c3ccc(F)cc3)[nH]c3c(F)cc(F)cc32)C1)C1COCC1O (stereo partly specified) | > 1000 nM
CC1(O)CC(NC(=O)NC[C@H]2C[C@H](c3c(-c4ccc(F)cc4)[nH]c4c(F)cc(F)cc43)C2)C1 (stereo partly specified) | > 1000 nM
O=C(NCC1(O)CC1)NC[C@H]1C[C@H](c2c(-c3ccc(F)cc3)[nH]c3c(F)cc(F)cc32)C1 | > 1000 nM
CC1CC(NC(=O)NC[C@H]2C[C@H](c3c(-c4ccc(F)cc4)[nH]c4c(F)cc(F)cc43)C2)C(=O)O1 (stereo partly specified) | > 1000 nM
O=C(NCc1ccco1)O[C@H]1C[C@H](c2c(-c3ccc(F)cc3)[nH]c3c(F)cc(F)cc32)C1 | > 1000 nM
O=C(NC[C@H]1C[C@H](c2c(-c3ccc(F)cc3)[nH]c3c(F)cc(F)cc32)C1)NC1CC(O)C1 (stereo partly specified) | > 1000 nM
O=C(NC[C@H]1C[C@H](c2c(-c3ccc(F)cc3)[nH]c3c(F)cc(F)cc32)C1)NC1(CO)CCOC1 (stereo partly specified) | > 1000 nM
CC1(C)CC(NC(=O)NC[C@H]2C[C@H](c3c(-c4ccc(F)cc4)[nH]c4c(F)cc(F)cc43)C2)C(=O)O1 (stereo partly specified) | > 1000 nM
CNC(=O)NC[C@H]1C[C@H](c2c(-c3ccc(F)cc3)[nH]c3c(F)cc(F)cc32)C1 | 0.25 nM
O=C(NC[C@H]1C[C@H](c2c(-c3ccc(F)cc3)[nH]c3c(F)cc(F)cc32)C1)NC1(CO)CC(F)(F)C1 | > 1000 nM

Compound | IC50
O=C(NC1CC(O)C1)O[C@H]1C[C@H](c2c(-c3ccc(F)cc3)[nH]c3c(F)cc(F)cc32)C1 (stereo partly specified) | > 1000 nM
O=C(NC[C@H]1C[C@H](c2c(-c3ccc(F)cc3)[nH]c3c(F)cc(F)cc32)C1)N[C@H]1CC[C@H](O)C1 | > 1000 nM
C[C@@H](CO)NC(=O)NC[C@H]1C[C@H](c2c(-c3ccc(F)cc3)[nH]c3c(F)cc(F)cc32)C1 | > 1000 nM
O=C(N[C@H]1COC[C@@H]1O)O[C@H]1C[C@H](c2c(-c3ccc(F)cc3)[nH]c3c(F)cc(F)cc32)C1 | > 1000 nM
C[C@]1(NC(=O)NC[C@H]2C[C@H](c3c(-c4ccc(F)cc4)[nH]c4c(F)cc(F)cc43)C2)C[C@@H](O)C1 | > 1000 nM
CC1(C)CC(C)(NC(=O)NC[C@H]2C[C@H](c3c(-c4ccc(F)cc4)[nH]c4c(F)cc(F)cc43)C2)C(=O)O1 (stereo partly specified) | > 1000 nM
Cc1ccc(CNC(=O)O[C@H]2C[C@H](c3c(-c4ccc(F)cc4)[nH]c4c(F)cc(F)cc43)C2)o1 | > 1000 nM
C[C@H](CO)NC(=O)NC[C@H]1C[C@H](c2c(-c3ccc(F)cc3)[nH]c3c(F)cc(F)cc32)C1 | > 1000 nM
O=C(NCC1(CO)COC1)NC[C@H]1C[C@H](c2c(-c3ccc(F)cc3)[nH]c3c(F)cc(F)cc32)C1 | > 1000 nM
CC1(NC(=O)NC[C@H]2C[C@H](c3c(-c4ccc(F)cc4)[nH]c4c(F)cc(F)cc43)C2)CCNC1=O (stereo partly specified) | > 1000 nM
O=C(NCC1CCNC1=O)NC[C@H]1C[C@H](c2c(-c3ccc(F)cc3)[nH]c3c(F)cc(F)cc32)C1 (stereo partly specified) | > 1000 nM
CC(C)(O)CNC(=O)NC[C@H]1C[C@H](c2c(-c3ccc(F)cc3)[nH]c3c(F)cc(F)cc32)C1 | > 1000 nM
CO[C@H]1C[C@@H](NC(=O)O[C@H]2C[C@H](c3c(-c4ccc(F)cc4)[nH]c4c(F)cc(F)cc43)C2)C1 | > 1000 nM
CNC(=O)N(C)CC1CC(c2c(-c3ccc(F)cc3)[nH]c3c(F)cc(F)cc23)C1 (stereo unspecified) | > 1000 nM
C[C@H](O)CNC(=O)N(C)CC1CC(c2c(-c3ccc(F)cc3)[nH]c3c(F)cc(F)cc23)C1 (stereo partly specified) | > 1000 nM
O=C(NC[C@H]1C[C@H](c2c(-c3ccc(F)cc3)[nH]c3c(F)cc(F)cc32)C1)N[C@H]1C[C@H](O)C1 | > 1000 nM
O=C(NCCO)NC[C@H]1C[C@H](c2c(-c3ccc(F)cc3)[nH]c3c(F)cc(F)cc32)C1 | > 1000 nM
O=C(N[C@H]1CCOC1)O[C@H]1C[C@H](c2c(-c3ccc(F)cc3)[nH]c3c(F)cc(F)cc32)C1 | > 1000 nM
O=C(NC[C@H]1C[C@H](c2c(-c3ccc(F)cc3)[nH]c3c(F)cc(F)cc32)C1)N[C@H]1CC[C@@H]1O | > 1000 nM

Compound | IC50
O=C(NC[C@H]1C[C@H](c2c(-c3ccc(F)cc3)[nH]c3c(F)cc(F)cc32)C1)N1CCC[C@@H]1CO | > 1000 nM
COC1CC1NC(=O)O[C@H]1C[C@H](c2c(-c3ccc(F)cc3)[nH]c3c(F)cc(F)cc32)C1 (stereo partly specified) | > 1000 nM
CC(C)(C)[C@H](CO)NC(=O)NC[C@H]1C[C@H](c2c(-c3ccc(F)cc3)[nH]c3c(F)cc(F)cc32)C1 | > 1000 nM
CC(C)[C@@H](CO)NC(=O)O[C@H]1C[C@H](c2c(-c3ccc(F)cc3)[nH]c3c(F)cc(F)cc32)C1 | > 1000 nM
CC[C@H](CO)NC(=O)NC[C@H]1C[C@H](c2c(-c3ccc(F)cc3)[nH]c3c(F)cc(F)cc32)C1 | > 1000 nM
O=C(NCC1CCOC1)O[C@H]1C[C@H](c2c(-c3ccc(F)cc3)[nH]c3c(F)cc(F)cc32)C1 (stereo partly specified) | > 1000 nM
CC(C)C(CO)NC(=O)O[C@H]1C[C@H](c2c(-c3ccc(F)cc3)[nH]c3c(F)cc(F)cc32)C1 (stereo partly specified) | > 1000 nM
O=C(NC1CCOC1)O[C@H]1C[C@H](c2c(-c3ccc(F)cc3)[nH]c3c(F)cc(F)cc32)C1 (stereo partly specified) | > 1000 nM
Cc1cnc(CNC(=O)O[C@H]2C[C@H](c3c(-c4ccc(F)cc4)[nH]c4c(F)cc(F)cc43)C2)o1 | > 1000 nM
CC[C@@H](CO)NC(=O)NC[C@H]1C[C@H](c2c(-c3ccc(F)cc3)[nH]c3c(F)cc(F)cc32)C1 | > 1000 nM
O=C(NC[C@H](O)C(F)(F)F)NC[C@H]1C[C@H](c2c(-c3ccc(F)cc3)[nH]c3c(F)cc(F)cc32)C1 | > 1000 nM
CC(CO)(CO)NC(=O)NC[C@H]1C[C@H](c2c(-c3ccc(F)cc3)[nH]c3c(F)cc(F)cc32)C1 | > 1000 nM
O=C(NC[C@H]1C[C@H](c2c(-c3ccc(F)cc3)[nH]c3c(F)cc(F)cc32)C1)N[C@H]1CC[C@H]1O | > 1000 nM
O=C(NCc1cn(CC(F)(F)F)cn1)O[C@H]1C[C@H](c2c(-c3ccc(F)cc3)[nH]c3c(F)cc(F)cc32)C1 | > 1000 nM
CC(O)(CO)CNC(=O)O[C@H]1C[C@H](c2c(-c3ccc(F)cc3)[nH]c3c(F)cc(F)cc32)C1 (stereo partly specified) | > 1000 nM
CCNC(=O)NC[C@H]1C[C@H](c2c(-c3ccc(F)cc3)[nH]c3c(F)cc(F)cc32)C1 | > 1000 nM
C[C@@H](O)CNC(=O)NC[C@H]1C[C@H](c2c(-c3ccc(F)cc3)[nH]c3c(F)cc(F)cc32)C1 | > 1000 nM
Cc1cc(CNC(=O)O[C@H]2C[C@H](c3c(-c4ccc(F)cc4)[nH]c4c(F)cc(F)cc43)C2)on1 | > 1000 nM
